Data from ChEMBL document CHEMBL1150977, “A quantitative analysis of kinase inhibitor selectivity” (Nat Biotechnol, 2008).

Tests used:
Myosin-IIIb = molecular target: T1, Myosin-IIIb (Homo sapiens, UniProt Q8WXR4)
T1 sequence (Q8WXR4 whole entry): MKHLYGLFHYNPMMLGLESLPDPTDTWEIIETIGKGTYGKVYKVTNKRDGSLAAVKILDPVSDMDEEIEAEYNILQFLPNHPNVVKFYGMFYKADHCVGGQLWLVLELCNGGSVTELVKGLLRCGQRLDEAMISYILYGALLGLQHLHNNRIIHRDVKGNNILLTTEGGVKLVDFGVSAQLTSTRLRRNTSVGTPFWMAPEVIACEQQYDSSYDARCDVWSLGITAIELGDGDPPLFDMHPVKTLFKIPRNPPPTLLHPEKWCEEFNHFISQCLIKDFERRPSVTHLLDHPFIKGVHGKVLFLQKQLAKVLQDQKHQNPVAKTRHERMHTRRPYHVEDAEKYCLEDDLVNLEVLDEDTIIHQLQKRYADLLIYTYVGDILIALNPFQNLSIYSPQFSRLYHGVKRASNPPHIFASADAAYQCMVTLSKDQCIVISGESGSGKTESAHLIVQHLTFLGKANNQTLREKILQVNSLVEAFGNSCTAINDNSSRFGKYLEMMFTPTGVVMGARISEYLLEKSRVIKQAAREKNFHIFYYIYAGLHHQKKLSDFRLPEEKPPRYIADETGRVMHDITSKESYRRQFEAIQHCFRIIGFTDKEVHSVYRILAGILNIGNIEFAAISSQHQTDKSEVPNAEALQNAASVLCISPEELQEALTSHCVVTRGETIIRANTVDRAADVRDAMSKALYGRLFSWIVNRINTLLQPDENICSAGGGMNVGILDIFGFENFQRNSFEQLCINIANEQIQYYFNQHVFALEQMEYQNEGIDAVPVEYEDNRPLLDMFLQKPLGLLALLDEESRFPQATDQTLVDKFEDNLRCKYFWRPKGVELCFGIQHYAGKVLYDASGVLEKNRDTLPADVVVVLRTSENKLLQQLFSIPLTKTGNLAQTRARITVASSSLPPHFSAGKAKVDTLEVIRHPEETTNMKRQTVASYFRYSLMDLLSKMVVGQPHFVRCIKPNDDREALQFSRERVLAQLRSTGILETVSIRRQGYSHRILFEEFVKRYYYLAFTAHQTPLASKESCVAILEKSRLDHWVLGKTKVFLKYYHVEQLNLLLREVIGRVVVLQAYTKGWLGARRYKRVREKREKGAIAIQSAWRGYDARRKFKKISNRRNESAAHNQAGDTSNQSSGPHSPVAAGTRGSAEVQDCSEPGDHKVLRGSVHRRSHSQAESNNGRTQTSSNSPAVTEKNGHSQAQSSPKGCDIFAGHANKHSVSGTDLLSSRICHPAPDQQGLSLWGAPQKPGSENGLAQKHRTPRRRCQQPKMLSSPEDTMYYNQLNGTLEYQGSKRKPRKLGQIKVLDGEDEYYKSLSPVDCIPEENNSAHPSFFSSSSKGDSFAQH

Ephrin type-A receptor 8 = molecular target: T2, Ephrin type-A receptor 8 (Homo sapiens, UniProt P29322)
T2 sequence (P29322 whole entry): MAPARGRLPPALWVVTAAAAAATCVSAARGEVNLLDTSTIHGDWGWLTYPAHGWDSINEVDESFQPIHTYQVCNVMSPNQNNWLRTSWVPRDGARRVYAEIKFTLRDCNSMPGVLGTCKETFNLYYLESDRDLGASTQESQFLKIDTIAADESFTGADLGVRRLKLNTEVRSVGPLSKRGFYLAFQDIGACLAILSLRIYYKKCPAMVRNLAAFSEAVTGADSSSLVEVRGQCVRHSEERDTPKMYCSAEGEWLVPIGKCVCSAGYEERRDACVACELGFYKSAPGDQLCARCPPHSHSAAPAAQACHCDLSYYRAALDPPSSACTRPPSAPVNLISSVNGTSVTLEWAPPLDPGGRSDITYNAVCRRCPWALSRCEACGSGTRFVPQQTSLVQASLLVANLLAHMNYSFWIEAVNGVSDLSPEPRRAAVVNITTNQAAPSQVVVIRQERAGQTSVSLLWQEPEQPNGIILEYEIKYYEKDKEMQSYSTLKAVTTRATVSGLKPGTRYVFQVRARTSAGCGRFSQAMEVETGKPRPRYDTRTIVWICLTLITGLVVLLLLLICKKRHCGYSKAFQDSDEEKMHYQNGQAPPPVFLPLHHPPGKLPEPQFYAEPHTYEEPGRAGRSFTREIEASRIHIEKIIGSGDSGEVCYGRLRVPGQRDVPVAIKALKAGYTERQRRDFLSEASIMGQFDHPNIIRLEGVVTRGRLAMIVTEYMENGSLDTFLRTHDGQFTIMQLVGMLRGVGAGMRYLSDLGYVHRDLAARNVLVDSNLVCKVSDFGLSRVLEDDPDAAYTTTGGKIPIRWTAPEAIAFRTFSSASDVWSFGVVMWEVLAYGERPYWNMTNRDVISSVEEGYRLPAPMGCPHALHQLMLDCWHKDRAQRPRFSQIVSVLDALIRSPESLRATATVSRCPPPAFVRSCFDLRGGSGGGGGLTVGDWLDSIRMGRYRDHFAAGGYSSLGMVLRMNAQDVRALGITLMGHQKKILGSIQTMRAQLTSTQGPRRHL

[1] = molecular target: Mitogen-activated protein kinase 6 (Homo sapiens, UniProt Q16659)
Sequence of Mitogen-activated protein kinase 6 (Q16659 whole entry): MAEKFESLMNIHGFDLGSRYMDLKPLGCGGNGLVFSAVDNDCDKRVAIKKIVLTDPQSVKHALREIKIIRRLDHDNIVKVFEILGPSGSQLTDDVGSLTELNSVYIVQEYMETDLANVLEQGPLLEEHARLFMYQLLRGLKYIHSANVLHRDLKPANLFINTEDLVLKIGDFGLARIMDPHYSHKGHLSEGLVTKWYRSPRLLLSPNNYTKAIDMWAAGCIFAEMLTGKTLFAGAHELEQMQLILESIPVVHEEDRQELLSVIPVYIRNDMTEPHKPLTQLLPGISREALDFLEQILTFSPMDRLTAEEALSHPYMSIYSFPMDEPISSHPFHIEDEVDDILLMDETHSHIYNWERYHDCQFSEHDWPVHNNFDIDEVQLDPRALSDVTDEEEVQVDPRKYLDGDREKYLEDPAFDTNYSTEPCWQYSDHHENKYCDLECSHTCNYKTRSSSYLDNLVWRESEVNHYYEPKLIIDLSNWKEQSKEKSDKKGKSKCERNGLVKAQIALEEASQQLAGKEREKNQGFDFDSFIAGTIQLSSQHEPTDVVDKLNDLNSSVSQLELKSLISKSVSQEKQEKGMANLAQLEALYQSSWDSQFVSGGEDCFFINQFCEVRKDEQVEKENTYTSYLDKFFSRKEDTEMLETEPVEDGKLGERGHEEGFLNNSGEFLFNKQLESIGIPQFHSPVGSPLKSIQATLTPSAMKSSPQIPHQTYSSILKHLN

[2] = molecular target: T3, Serine/threonine-protein kinase RIO1 (Homo sapiens, UniProt Q9BRS2)
T3 sequence (Q9BRS2 whole entry): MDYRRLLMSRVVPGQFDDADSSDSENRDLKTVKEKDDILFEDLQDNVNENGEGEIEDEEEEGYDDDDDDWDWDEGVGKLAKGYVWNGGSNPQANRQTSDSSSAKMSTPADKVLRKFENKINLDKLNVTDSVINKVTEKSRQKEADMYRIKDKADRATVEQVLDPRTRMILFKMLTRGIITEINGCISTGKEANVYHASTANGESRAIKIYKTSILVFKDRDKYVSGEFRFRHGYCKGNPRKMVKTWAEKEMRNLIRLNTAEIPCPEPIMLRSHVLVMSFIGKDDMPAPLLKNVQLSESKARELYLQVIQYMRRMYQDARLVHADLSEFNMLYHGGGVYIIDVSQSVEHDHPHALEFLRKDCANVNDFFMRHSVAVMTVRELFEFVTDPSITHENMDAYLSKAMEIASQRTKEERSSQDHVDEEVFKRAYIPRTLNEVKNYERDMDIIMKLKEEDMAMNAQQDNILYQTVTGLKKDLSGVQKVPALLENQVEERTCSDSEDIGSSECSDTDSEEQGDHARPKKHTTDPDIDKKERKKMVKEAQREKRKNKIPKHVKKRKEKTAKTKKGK

Measured: Kd

COCC(=O)NC/C=C/c1ccc2ncnc(Nc3ccc(Oc4ccc(C)nc4)c(C)c3)c2c1 [CP-724714]
> 10 µM: all assays above

Nc1nc(Nc2ccc(S(N)(=O)=O)cc2)nn1C(=O)c1c(F)cccc1F [JNJ-7706621]
> 10 µM: Myosin-IIIb | Ephrin type-A receptor 8

CCOc1cc2ncc(C#N)c(Nc3ccc(F)c(Cl)c3)c2cc1NC(=O)/C=C/CN(C)C [PELITINIB]
> 10 µM: Myosin-IIIb | [1] | [2]

Oc1ccc(-c2nc(-c3ccncc3)c(-c3ccc(F)cc3)[nH]2)cc1 [SB-202190]
> 10 µM: all assays above

NC(=O)c1ccc(-c2nc(-c3ccc4c(c3)OCO4)c(-c3ccccn3)[nH]2)cc1 [SB-431542]
> 10 µM: all assays above
